Measurements taken from patent US20210085640A1, “ACYLATED CATECHIN POLYPHENOLS AND METHODS OF THEIR USE FOR THE TREATMENT OF CANCER” (Flagship Pioneering Innovations V, Inc., priority 2018, published 2021).

Columns and labels:
[1] = Stability in Simulated Gastric Fluid (SGF); type: in vitro ADME; conditions: SGF pH 1.6 with pepsin, 1 μM, 37° C.
Protocol: Stability of acylated active agents in Simulated Gastric Fluid (SGF). This assay was used to assess the stability of an acylated active agent in a stomach.
Medium was prepared by dissolving 2 g of sodium chloride in 0.6 L in ultrapure water (MilliQ®, Millipore Sigma, Darmstadt, Germany). The pH was adjusted to 1.6 with 1N hydrochloric acid, and the volume was then adjusted to 1 L with purified water.
60 mg FaSSIF powder (Biorelevant™, London, UK) were dissolved in 500 mL buffer (above). Pepsin was added (0.1 mg/mL) (Millipore Sigma, Darmstadt, Germany), and the solution was stirred. The resulting SGF media were used fresh for each experiment.
(§1) Test compounds were dissolved in DMSO stock to 1 mM. An aliquot of the DMSO stock solution was removed and diluted in the SGF Media in 15 mL falcon tubes to generate a total compound concentration of 1 μM. A 1 mL aliquot was immediately removed and diluted once with 1 volume of acetonitrile for T0 timepoint. The mixture was sealed and mixed at 37° C. in an incubator. Aliquots (1 mL) were removed at regular intervals and immediately quenched by the addition of 1 volume of acetonitrile. The resulting samples were analyzed by LC/MS to determine degradation rates

[2] = Stability in Simulated Intestinal Fluid (SIF); type: in vitro ADME; conditions: for Assay 2 (SIF) (% @ Remaining 4 hours): SIF pH 6.7 with pancreatin, 1 μM, 37° C.; for selective delivery to the upper intestine: conclusion drawn from Table 1 (SGF and SIF stability)
Protocol: SIF Stability of acylated active agents in Simulated Intestinal Fluid (SIF). This assay was used to assess the stability of an acylated active agent in a small intestine.
Phosphate buffer was prepared by dissolving 0.42 g of sodium hydroxide pellets and 3.95 g of monobasic sodium phosphate monohydrate and 6.19 g of sodium chloride in ultrapure water (MilliQ®, Millipore Sigma, Darmstadt, Germany). The pH was adjusted to 6.7 using aq. HCl and aq. NaOH, as necessary, and the solution was diluted with ultrapure water to produce 1 L of the pH 6.7 buffer.
112 mg FaSSIF powder (Biorelevant™, London, UK) was dissolved in 50 mL of the pH 6.7 buffer. 2 to 3 mL of the resulting solution were then added to 500 mg pancreatin (Millipore Sigma, Darmstadt, Germany). The resulting mixture was agitated by finger tapping the vessel containing the mixture until milky suspension formed. At this time, the remainder of the 50 mL FaSSiF/pH 6.7 buffer solution was added. The resulting suspension was flipped upside down 10 times to produce SIF, which was used fresh.
as §1, with “SIF media” for “SGF Media”, “produce” for “generate”, “mixture with a tested” for “total”, “agitated” for “mixed”, “rates.” for “rates”

[3] = Human Regulatory T Cell Differentiation Assay; type: cell-based; conditions: human, primary naïve CD4+ T cells isolated from PBMCs, read-out: Cell viability % DMSO
Protocol: Peripheral blood mononuclear cells (PBMCs) from whole blood donated by health volunteers were separated by Ficoll-Paque gradient centrifugation and naïve CD4^+ T cells were subsequently isolated using magnet beads (EasySep™ Human Naïve CD4^+ T Cell Isolation Kit, Cambridge, Mass.). For regulatory T cell (Treg) differentiation assay, naïve CD4^+ T cells were cultured (1-10×10^4 cells) in CTS OpTmizer medium for 6 days and stimulated with 5 ng/ml TGF-β, 100 U/ml IL-2, and ImmunoCult™ Human […] T Cell Activator; Stemcell #10990) with/without Compounds. Cell viability was determined using a viability dye (eBioscience Fixable Viability Dye eFluor 780: ThermoFisher 65-0865-14) at 1:500 dilution. The cells were gated for Treg, defined as Live, CD11c^−, CD14^−, CD19^−, CD8^−, CD4^+, CD3^+, CD25^+, FOXP3^+. Percent (%) Tregs were calculated as percentage of CD4^+, CD25^+, FOXP3^+ cells over total CD4^+ T cells. Statistical analysis was performed with GraphPad Prism Software Using One-Way ANOVA.

Row | Compound | Assay 1 (SGF) (% Remaining @ 1 hours) [1] | Assay 2 (SIF) (% @ Remaining 4 hours) [2] | selective delivery to the upper intestine [2] | also measured
1 | CCC(=O)OCC[C@@H](C)OC(=O)Oc1ccc(/C=C/c2cc(OC(=O)O[C@H](C)CCOC(=O)CC)cc(OC(=O)O[C@H](C)CCOC(=O)CC)c2)cc1 [Compound 27, [(3R)-3-[4-[(E)-2-[3,5-bis[[(1R)-1-methyl-3-propanoyloxy-propoxy]carbonyloxy]phenyl]vinyl]phenoxy]carbonyloxybutyl] propanoate] | C (>75% of the tested compound remaining) | A (<25% of the tested compound remaining) | can be selectively delivered to the upper intestine | 
2 | CC(=O)O[C@H](C)CCOC(=O)Oc1ccc(/C=C/c2cc(OC(=O)OCC[C@@H](C)OC(C)=O)cc(OC(=O)OCC[C@@H](C)OC(C)=O)c2)cc1 [Compound 34, [(1R)-3-[4-[(E)-2-[3,5-bis[[(3R)-3-acetoxybutoxy]carbonyloxy]phenyl]vinyl]phenoxy]carbonyloxy-1-methyl-propyl] acetate] | C (>75% of the tested compound remaining) | A (<25% of the tested compound remaining) | can be selectively delivered to the upper intestine | 
3 | CCCC(=O)OCC[C@@H](C)OC(=O)Oc1ccc(/C=C/c2cc(OC(=O)O[C@H](C)CCOC(=O)CCC)cc(OC(=O)O[C@H](C)CCOC(=O)CCC)c2)cc1 [Compound 25, [(3R)-3-[4-[(E)-2-[3,5-bis[[(1R)-3-butanoyloxy-1-methyl-propoxy]carbonyloxy]phenyl]vinyl]phenoxy]carbonyloxybutyl] butanoate] | C (>75% of the tested compound remaining) | A (<25% of the tested compound remaining) | can be selectively delivered to the upper intestine | 
4 | CCCC(=O)O [Butyric Acid] |  |  |  | viability at 6 days, 3 mM [3]: < 90%
5 | CCCC(=O)Oc1cc(OC(=O)CCC)c2c(=O)c(OC(=O)CCC)c(-c3ccc(OC(=O)CCC)c(OC(=O)CCC)c3)oc2c1 [Compound 5, [2-butanoyloxy-4-[3,5,7-tri(butanoyloxy)-4-oxo-chromen-2-yl]phenyl] butanoate] | C (>75% of the tested compound remaining) | B (25-75% of the tested compound remaining) | can be selectively delivered to the upper intestine | 
6 | CN(CCOc1ccc(CC2SC(=O)NC2=O)cc1)c1ccccn1 (stereo not shown) [Rosiglitazone] |  |  |  | viability at 6 days, 10 µM ([3]; 10 uM): 90 to 110%; viability at 6 days, 100 µM [3]: < 90%
7 | C[C@@H](O)CCO [(R)-1,3-Butanediol] |  |  |  | viability at 6 days, 100 µM [3]: 90 to 110%; viability at 6 days, 0.5 mM ([3]; 0.5 mM): 90 to 110%
8 | CC[C@H]1[C@@H](O)[C@@H]2[C@H](CC[C@]3(C)[C@@H]([C@H](C)CCC(=O)O)CC[C@@H]23)[C@@]2(C)CC[C@@H](O)C[C@@H]12 [Obeticholic acid] |  |  |  | viability at 6 days, 100 µM [3]: 90 to 110%
9 | CC(=O)OCC[C@@H](C)OC(=O)Oc1ccc(/C=C/c2cc(OC(=O)O[C@H](C)CCOC(C)=O)cc(OC(=O)O[C@H](C)CCOC(C)=O)c2)cc1 [Compound 33, [(3R)-3-[4-[(E)-2-[3,5-bis[[(1R)-3-acetoxy-1-methyl-propoxy]carbonyloxy]phenyl]vinyl]phenoxy]carbonyloxybutyl] acetate] | C (>75% of the tested compound remaining) | A (<25% of the tested compound remaining) | can be selectively delivered to the upper intestine | 
10 | O=c1c(O)c(-c2ccc(O)c(O)c2)oc2cc(O)cc(O)c12 [Quercetin] |  |  |  | viability at 6 days, 0.1 µM ([3]; 100 nM): 90 to 110%; viability at 6 days, 1 µM ([3]; 1 uM): 90 to 110%
11 | CCC(=O)Oc1cc(O)c2c(=O)cc(-c3ccc(OC(=O)CC)c(OC(=O)CC)c3)oc2c1 [Compound 12, 4-(5-hydroxy-4-oxo-7-(propionyloxy)-4H-chromen-2-yl)-1,2-phenylene dipropionate] | C (>75% of the tested compound remaining) | A (<25% of the tested compound remaining) | can be selectively delivered to the upper intestine | 
12 | CCC(=O)Oc1ccc2c(c1)oc(=O)c1cc(OC(=O)CC)c(OC(=O)CC)cc12 [Compound 18, [6-oxo-8,9-di(propanoyloxy)benzo[c]chromen-3-yl] propanoate] | C (>75% of the tested compound remaining) | A (<25% of the tested compound remaining) | can be selectively delivered to the upper intestine | 
13 | CC(=O)Oc1ccc(C2CC(=O)c3c(OC(C)=O)cc(OC(C)=O)cc3O2)cc1 (stereo not shown) [Compound 9, [4-(5,7-diacetoxy-4-oxo-chroman-2-yl)phenyl] acetate] | C (>75% of the tested compound remaining) | A (<25% of the tested compound remaining) | can be selectively delivered to the upper intestine | 
14 | CCCC(=O)Oc1ccc(C2CC(=O)c3c(OC(=O)CCC)cc(OC(=O)CCC)cc3O2)cc1 (stereo not shown) [Compound 10, [4-[5,7-di(butanoyloxy)-4-oxo-chroman-2-yl]phenyl] butanoate] | B (25-75% of the tested compound remaining) | A (<25% of the tested compound remaining) |  | 
15 | CCC(=O)O[C@H](C)CCOC(=O)Oc1ccc(/C=C/c2cc(OC(=O)OCC[C@@H](C)OC(=O)CC)cc(OC(=O)OCC[C@@H](C)OC(=O)CC)c2)cc1 [Compound 28, (2R,2′R)-((((5-(E)-4-((((R)-3-(propionyloxy)butoxy)carbonyl)oxy)styryl)-1,3-phenylene)bis(oxy))bis(carbonyl))bis(oxy))bis(butane-4,2-diyl) dipropionate] | B (25-75% of the tested compound remaining) | A (<25% of the tested compound remaining) |  | 
16 | CC(=O)Oc1cc(OC(C)=O)c2c(=O)c(OC(C)=O)c(-c3ccc(OC(C)=O)c(OC(C)=O)c3)oc2c1 [Compound 4, [2-acetoxy-4-(3,5,7-triacetoxy-4-oxo-chromen-2-yl)phenyl] acetate] | C (>75% of the tested compound remaining) | A (<25% of the tested compound remaining) | can be selectively delivered to the upper intestine | 
17 | CC(=O)O [Acetic acid] |  |  |  | viability at 6 days, 1 mM ([3]; 1 mM): 90 to 110%; viability at 6 days, 3 mM [3]: 90 to 110%
18 | CCCC(=O)O[C@H](C)CCOC(=O)Oc1ccc(/C=C/c2cc(OC(=O)OCC[C@@H](C)OC(=O)CCC)cc(OC(=O)OCC[C@@H](C)OC(=O)CCC)c2)cc1 [Compound 26, [(1R)-3-[4-[(E)-2-[3,5-bis[[(3R)-3-butanoyloxybutoxy]carbonyloxy]phenyl]vinyl]phenoxy]carbonyloxy-1-methyl-propyl] butanoate] | C (>75% of the tested compound remaining) | B (25-75% of the tested compound remaining) |  | 
